In ChEMBL document CHEMBL1201862, “PubChem BioAssay data set” (2004):
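These data come from cells grown in 96-well plates and exposed to compound for 48 hours at five concentrations. GI50 = concentration required for 50% inhibition of growth.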 Activity calls are given as the source filed them. No stated cut-off is given here; in the data, active = GI50 up to about 1.1 µM and inactive = higher. *1 amine or outer side, *2 acyl side, *3 side chain or, on linkers, in order; H or OH if unused. Where a SMILES comes first, the peptide text is derived from it. Bridges are numbered along the chain shown (N, C = ends). Roman numbers before positions name the chains, in order. [ ]: non-standard residue; d: D form. Actinocin(9to1) = Cc1c2oc3c(C)ccc(C(=O)[*:1])c3nc-2c(C(=O)[*:2])c(N)c1=O; NMeV = CN[CH](C(=O)O)C(C)C; Sar = CNCC(=O)O

How the values were obtained:
Test in all cases: NCI anticancer screen, dose series, 48 h
[1] = tested on: SNB-75
[2] = tested on: Hs-578T
[3] = tested on: HCC 2998
[4] = tested on: MOLT-4
[5] = tested on: DU-145
[6] = tested on: SK-MEL-5
[7] = tested on: BT-549
[8] = tested on: MDA-MB-231
[9] = tested on: OVCAR-5
[10] = tested on: MCF7
[11] = tested on: LOX IMVI
[12] = tested on: SW-620
[13] = tested on: MDA-MB-435
[14] = tested on: Malme-3M
[15] = tested on: HCT-116
[16] = tested on: MDA-N
[17] = tested on: SK-MEL-2
[18] = tested on: PC-3

Structure (SMILES): CSC1(C)C(=O)Nc2c(OCc3ccccc3)cc([N+](=O)[O-])cc21 (configuration not stated)
- GI50 [1]: 11.9 µM (inactive)
- GI50 [2]: 17.7 µM (inactive)
- GI50 [3]: > 100 µM (inactive)
- GI50 [4]: 83.6 µM (inactive)
- GI50 [5]: > 100 µM (inactive)
- GI50 [6]: 15.3 µM (inactive)
- GI50 [7]: 51.1 µM (inactive)
- GI50 [8]: 26.7 µM (inactive)
- GI50 [9]: 63 µM (inactive)
- GI50 [10]: 14 µM (inactive)
- GI50 [11]: 53 µM (inactive)
- GI50 [12]: 71.6 µM (inactive)
- GI50 [13]: 78.3 µM (inactive)
- GI50 [14]: 63.4 µM (inactive)
- GI50 [15]: 85.5 µM (inactive)
- GI50 [16]: 30.1 µM (inactive)
- GI50 [17]: 38.7 µM (inactive)
- GI50 [18]: 27 µM (inactive)

Structure (SMILES): NN=C(S)Nc1cccc(Cl)c1
- GI50 [1]: > 100 µM (inactive)
- GI50 [2]: > 100 µM (inactive)
- GI50 [3]: 64.7 µM (inactive)
- GI50 [4]: 35.4 µM (inactive)
- GI50 [5]: > 100 µM (inactive)
- GI50 [6]: > 100 µM (inactive)
- GI50 [7]: > 100 µM (inactive)
- GI50 [8]: > 100 µM (inactive)
- GI50 [9]: > 100 µM (inactive)
- GI50 [10]: > 100 µM (inactive)
- GI50 [11]: > 100 µM (inactive)
- GI50 [12]: > 100 µM (inactive)
- GI50 [13]: 83.6 µM (inactive)
- GI50 [14]: > 100 µM (inactive)
- GI50 [15]: 36.3 µM (inactive)
- GI50 [16]: > 100 µM (inactive)
- GI50 [17]: 79.4 µM (inactive)
- GI50 [18]: 48.2 µM (inactive)

Structure (SMILES): CN(C)CC1CCC/C(=C\c2ccccc2)C1=O (configuration not stated)
- GI50 [1]: 13.8 µM (inactive)
- GI50 [2]: 2.77 µM (inactive)
- GI50 [3]: 15.5 µM (inactive)
- GI50 [4]: 4.6 µM (inactive)
- GI50 [5]: 15.3 µM (inactive)
- GI50 [6]: 8.79 µM (inactive)
- GI50 [7]: 7.69 µM (inactive)
- GI50 [8]: 1.98 µM (inactive)
- GI50 [9]: 15.6 µM (inactive)
- GI50 [10]: 0.575 µM (active)
- GI50 [11]: 1.69 µM (inactive)
- GI50 [12]: 1.55 µM (inactive)
- GI50 [13]: 1.78 µM (inactive)
- GI50 [14]: 1.85 µM (inactive)
- GI50 [15]: 1.56 µM (inactive)
- GI50 [16]: 2.99 µM (inactive)
- GI50 [17]: 5.5 µM (inactive)
- GI50 [18]: 8.49 µM (inactive)

Structure (SMILES): Cc1c2oc3c(C)ccc(C(=O)NC4C(=O)NC(C(C)O)C(=O)N5CCCC5C(=O)N(C)CC(=O)N(C)C(C(C)C)C(=O)OC4C)c3nc-2c(C(=O)NC2C(=O)NC(C(C)O)C(=O)N3CCCC3C(=O)N(C)CC(=O)N(C)C(C(C)C)C(=O)OC2C)c(N)c1=O (configuration not stated) (I: TTP[Sar][NMeV] / II: TTP[Sar][NMeV]; ester I:1-I:C, II:1-II:C; linker I:N-II:N via Actinocin(9to1); configuration not given here)
- GI50 [1]: 0.198 µM (active)
- GI50 [2]: 1.41 µM (inactive)
- GI50 [3]: 1.54 µM (inactive)
- GI50 [4]: 0.0527 µM (active)
- GI50 [5]: 1.32 µM (inactive)
- GI50 [6]: 0.167 µM (active)
- GI50 [7]: 0.0155 µM (active)
- GI50 [8]: 3.76 µM (inactive)
- GI50 [9]: 1.95 µM (inactive)
- GI50 [10]: 0.0507 µM (active)
- GI50 [11]: 0.0493 µM (active)
- GI50 [12]: 0.067 µM (active)
- GI50 [13]: 0.413 µM (active)
- GI50 [14]: 0.125 µM (active)
- GI50 [15]: 0.0456 µM (active)
- GI50 [16]: 1.08 µM (active)
- GI50 [17]: 0.133 µM (active)
- GI50 [18]: 1.06 µM (active)

Structure (SMILES): CC1(C)[C@H](C(=O)O)N2C(=O)[C@@H](NS(=O)(=O)c3ccc([N+](=O)[O-])cc3)[C@H]2S1(=O)=O
- GI50 [1]: > 100 µM (inactive)
- GI50 [2]: > 100 µM (inactive)
- GI50 [3]: > 100 µM (inactive)
- GI50 [4]: > 100 µM (inactive)
- GI50 [5]: > 100 µM (inactive)
- GI50 [6]: > 100 µM (inactive)
- GI50 [7]: > 100 µM (inactive)
- GI50 [8]: > 100 µM (inactive)
- GI50 [9]: > 100 µM (inactive)
- GI50 [10]: > 100 µM (inactive)
- GI50 [11]: > 100 µM (inactive)
- GI50 [12]: > 100 µM (inactive)
- GI50 [13]: > 100 µM (inactive)
- GI50 [14]: > 100 µM (inactive)
- GI50 [15]: > 100 µM (inactive)
- GI50 [16]: > 100 µM (inactive)
- GI50 [17]: > 100 µM (inactive)
- GI50 [18]: > 100 µM (inactive)

Structure (SMILES): O=[N+]([O-])c1ccc(C2=NOC(c3ccccc3F)N2C23CC4CC(CC(C4)C2)C3)cc1 (configuration not stated)
- GI50 [1]: > 100 µM (inactive)
- GI50 [2]: > 100 µM (inactive)
- GI50 [3]: > 100 µM (inactive)
- GI50 [4]: > 100 µM (inactive)
- GI50 [5]: > 100 µM (inactive)
- GI50 [6]: > 100 µM (inactive)
- GI50 [7]: > 100 µM (inactive)
- GI50 [8]: > 100 µM (inactive)
- GI50 [9]: > 100 µM (inactive)
- GI50 [10]: > 100 µM (inactive)
- GI50 [11]: > 100 µM (inactive)
- GI50 [12]: > 100 µM (inactive)
- GI50 [13]: > 100 µM (inactive)
- GI50 [14]: > 100 µM (inactive)
- GI50 [15]: > 100 µM (inactive)
- GI50 [16]: > 100 µM (inactive)
- GI50 [17]: > 100 µM (inactive)
- GI50 [18]: > 100 µM (inactive)

Structure (SMILES): COc1nc2c(N3CCCC3)nc(N3CCNCC3)nc2nc1NCc1ccccc1
- GI50 [1]: 1.44 µM (inactive)
- GI50 [2]: 2.08 µM (inactive)
- GI50 [3]: 1.39 µM (inactive)
- GI50 [4]: 1.9 µM (inactive)
- GI50 [5]: 1.75 µM (inactive)
- GI50 [6]: 1.53 µM (inactive)
- GI50 [7]: 1.85 µM (inactive)
- GI50 [8]: 1.63 µM (inactive)
- GI50 [9]: 2.61 µM (inactive)
- GI50 [10]: 1.76 µM (inactive)
- GI50 [11]: 1.47 µM (inactive)
- GI50 [12]: 2.77 µM (inactive)
- GI50 [13]: 1.39 µM (inactive)
- GI50 [14]: 2.07 µM (inactive)
- GI50 [15]: 1.05 µM (active)
- GI50 [16]: 1.21 µM (inactive)
- GI50 [17]: 1.66 µM (inactive)
- GI50 [18]: 2.28 µM (inactive)

Structure (SMILES): CSC1(SC)N2Cc3ccccc3N=C2C1(c1ccccc1)c1ccccc1
- GI50 [1]: > 100 µM (inactive)
- GI50 [2]: 29 µM (inactive)
- GI50 [3]: 2.6 µM (inactive)
- GI50 [4]: 2.77 µM (inactive)
- GI50 [5]: 19.5 µM (inactive)
- GI50 [6]: 11.4 µM (inactive)
- GI50 [7]: > 50.6 µM (inactive)
- GI50 [8]: 26.7 µM (inactive)
- GI50 [9]: > 40.1 µM (inactive)
- GI50 [10]: 8.17 µM (inactive)
- GI50 [11]: 12.3 µM (inactive)
- GI50 [12]: 13 µM (inactive)
- GI50 [13]: 4.01 µM (inactive)
- GI50 [14]: 8.22 µM (inactive)
- GI50 [15]: 6.18 µM (inactive)
- GI50 [16]: 12.5 µM (inactive)
- GI50 [17]: 12.7 µM (inactive)
- GI50 [18]: 12 µM (inactive)

Structure (SMILES): FC(F)(F)c1ccc2c(c1)nc1n2C(c2c(Cl)cccc2Cl)SC1 (configuration not stated)
- GI50 [1]: 15.1 µM (inactive)
- GI50 [2]: 19.7 µM (inactive)
- GI50 [3]: 21.8 µM (inactive)
- GI50 [4]: 38.7 µM (inactive)
- GI50 [5]: 21.4 µM (inactive)
- GI50 [7]: 23 µM (inactive)
- GI50 [8]: 17 µM (inactive)
- GI50 [9]: 15.5 µM (inactive)
- GI50 [10]: 15.7 µM (inactive)
- GI50 [11]: 25.9 µM (inactive)
- GI50 [12]: 24.3 µM (inactive)
- GI50 [13]: 16.8 µM (inactive)
- GI50 [14]: 18.2 µM (inactive)
- GI50 [15]: 15.1 µM (inactive)
- GI50 [16]: 16.6 µM (inactive)
- GI50 [17]: 17.7 µM (inactive)
- GI50 [18]: 15 µM (inactive)

Structure (SMILES): COc1ccc2nc3cc(Cl)ccc3c(NCCCCCC(=O)NC(COc3ccc4ccc5cccnc5c4n3)COc3ccc4ccc5cccnc5c4n3)c2c1
- GI50 [1]: 21 µM (inactive)
- GI50 [2]: 29 µM (inactive)
- GI50 [3]: 14.9 µM (inactive)
- GI50 [4]: 0.527 µM (active)
- GI50 [5]: 11.5 µM (inactive)
- GI50 [6]: 16.8 µM (inactive)
- GI50 [7]: 1.67 µM (inactive)
- GI50 [8]: 19.4 µM (inactive)
- GI50 [9]: 24.4 µM (inactive)
- GI50 [10]: 2.23 µM (inactive)
- GI50 [11]: 21.4 µM (inactive)
- GI50 [12]: 12 µM (inactive)
- GI50 [13]: 38.6 µM (inactive)
- GI50 [14]: 45.9 µM (inactive)
- GI50 [15]: 8.24 µM (inactive)
- GI50 [16]: 23 µM (inactive)
- GI50 [17]: 25.3 µM (inactive)
- GI50 [18]: 15.2 µM (inactive)

Structure (SMILES): C[N+](C)(C)c1ncnc2c1ncn2C1CC(O)C(CO)O1 (configuration not stated)
- GI50 [1]: > 100 µM (inactive)
- GI50 [2]: > 100 µM (inactive)
- GI50 [3]: > 100 µM (inactive)
- GI50 [4]: > 100 µM (inactive)
- GI50 [5]: > 100 µM (inactive)
- GI50 [6]: > 100 µM (inactive)
- GI50 [7]: > 100 µM (inactive)
- GI50 [8]: > 100 µM (inactive)
- GI50 [9]: > 100 µM (inactive)
- GI50 [10]: > 100 µM (inactive)
- GI50 [11]: > 100 µM (inactive)
- GI50 [12]: > 100 µM (inactive)
- GI50 [13]: > 100 µM (inactive)
- GI50 [14]: > 100 µM (inactive)
- GI50 [15]: > 100 µM (inactive)
- GI50 [16]: > 100 µM (inactive)
- GI50 [17]: > 100 µM (inactive)
- GI50 [18]: > 100 µM (inactive)
